Source: paper PMC10942122 (Science Advances, 2024)
“And” between values parts separate entries of the source, which are not always exact repeats. Identical values can stand only once.

How the values were obtained:
Mtb H37Rv WT [1] = conditions: cited from earlier work
Mtb H37Rv WT [2] = format: cell-based, Mycobacterium tuberculosis
PptT [3] = biological target: T1, PptT (Mycobacterium tuberculosis, UniProt O33336); test: Differential scanning fluorimetry thermal shift assay; format: binding; conditions: for ΔTm of CoA-preincubated PptT: 50 μM Ralt-1, Hepes buffer without arginine/glutamate
T1 sequence (O33336 1-227): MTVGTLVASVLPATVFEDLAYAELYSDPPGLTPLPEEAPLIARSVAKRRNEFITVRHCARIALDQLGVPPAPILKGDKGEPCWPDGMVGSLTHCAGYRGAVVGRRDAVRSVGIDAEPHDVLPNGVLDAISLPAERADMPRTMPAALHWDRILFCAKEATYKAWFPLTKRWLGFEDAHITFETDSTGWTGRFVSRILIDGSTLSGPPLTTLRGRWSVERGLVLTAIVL

Mtb H37Rv = conditions: 10 μM, 24 hours, Mtb on filters
[4] = system: Mtb pptT cKD -ATc (PptT depleted); format: cell-based, Mycobacterium tuberculosis; conditions: PptT depleted by withholding ATc
PptT [5] = biological target: T1, PptT; test: Kinetic mechanism assay for N-ACP PKS13 substrate; format: biochemical
PptT [6] = biological target: T1, PptT; test: BpsA assay of PptT activity with native CoA; format: biochemical
PptT [7] = biological target: T1, PptT; test: FP-based PptT enzyme assay; format: biochemical
Mtb pptT cKD +ATc = test: microbe, parasite or virus in culture; format: cell-based; conditions: Mycobacterium tuberculosis, read-out: MIC90 PptT KD +ATc
CoA-saturated PptT = biological target: T2, CoA-saturated PptT (Mycobacterium tuberculosis, UniProt O33336); test: biochemical; format: binding
T2 sequence (O33336 1-227): T1 sequence (O33336 1-227)

Mtb pptH KO = test: Minimal inhibitory concentration determination, pptH KO; format: cell-based; conditions: Mycobacterium tuberculosis, read-out: MIC90 ΔPptH
PptT [8] = biological target: T1, PptT; test: Preincubation and rapid dilution assay; format: biochemical; conditions: 10 μM each preincubated, 500-fold dilution
Mtb DHFR = biological target: T3, Mtb DHFR (Mycobacterium tuberculosis, UniProt P9WNX1); test: Dihydrofolate reductase; format: biochemical
T3 sequence (P9WNX1 1-161): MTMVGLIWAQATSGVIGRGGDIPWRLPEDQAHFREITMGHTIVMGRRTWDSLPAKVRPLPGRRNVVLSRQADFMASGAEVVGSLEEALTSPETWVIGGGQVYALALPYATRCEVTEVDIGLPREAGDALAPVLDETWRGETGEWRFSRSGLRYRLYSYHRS

Row | SMILES | MIC90 against Mtb (Mtb H37Rv WT [1]) [µM] | MIC90 H37Rv (Mtb H37Rv WT [2]) [µM] | whole-cell activity / target profile against Mtb (in words) (Mtb H37Rv WT [2]) | ΔTm of CoA-preincubated PptT (PptT [3]; 1 mM CoA) [°C] | ΔTm of CoA-preincubated PptT (PptT [3]; 2 mM CoA) [°C] | gain in melting temperature (Tm) of PptT (PptT [3]; 1:10 molar ratio of protein to Ralt-1) [°C] | % Uptake from media (Mtb H37Rv) [%] | MIC90 PptT KD -ATc [4] [nM] | mode of inhibition with respect to the ACP substrate (PptT [5]) | IC50 (PptT [6]) [nM] | maximum inhibition (PptT [7]; FP assay, BDP-CoA, normalized) [%] | IC50 (PptT [7]; IC50 PptT, FP assay at 100 nM PptT enzyme concentration) | IC50 (PptT [7]; IC50 PptT, FP assay, fresh/resupplied powder or purity-checked sample) [nM] | IC50 (PptT [7]; IC50 against rPptT) [nM] | Hill slope (h) (PptT [7]; concentration-response curve, FP assay) | MIC (Mtb pptT cKD +ATc) [µM] | Kd (CoA-saturated PptT) [nM] | MIC (Mtb pptH KO) [µM] | reversibility of binding to PptT (PptT [8]) | IC50 (Mtb DHFR) [nM]
1 | CN(Cc1cnc2nc(N)nc(N)c2n1)c1ccc(C(=O)N[C@@H](CCC(=O)O)C(=O)O)cc1 [Methotrexate] | > 100000 |  |  |  |  |  |  |  |  |  |  |  |  |  |  |  |  |  |  | 
2 | Cc1nc2ccc(CN(C)c3ccc(C(=O)N[C@@H](CCC(=O)O)C(=O)O)s3)cc2c(=O)[nH]1 [Ralt-1, Raltitrexed] |  | >100 | no activity | 4 | 3 | 15 | 1.2 ± 0.1 | >100000 | noncompetitive mode of inhibition | 250 | ≥ 100 | 70 nM and 65 nM | ~50 | 730 | 1.5 | > 100 | 290 ± 29 | > 100 | readily reversible | 8500
